{"source": "patent US11241417B2", "about": "“Compositions and methods for the treatment and prevention of neurological disorders” (Yumanity Therapeutics, Inc., priority 2018, dated 2022)", "format_in_all_cases": "cell-based", "key": {"TDP-43-expressing yeast": {"test_system": "TDP-43-expressing yeast", "test": "Yeast TDP-43 model viability (resazurin-reduction endpoint)", "details": "2-fold serial dilution applied for 24 hours", "experimental": "(§1) (FIG. 1A) Structure of the Erg11 inhibitor and anti-fungal, fluconazole. […] A 2-fold serial dilution of fluconazole was applied to TDP-43-expressing yeast for 24 hours prior to analysis. (FIG. 1C) Wild-type yeast cultures were treated with fluconazole for eight hours prior to HPLC analysis for lanosterol and ergosterol. Data are expressed as the area under the curve (AUC) normalized to cell mass based on optical density of cultures at 600 nm.\nThe toxic gain of function features of TDP-43 can be faithfully recapitulated in the simple model organism, budding yeast, where the protein also localizes to stress granules. […] The yeast model thus provides a robust cell-based screening platform for small molecules capable of ameliorating toxicity. To validate compounds from such phenotypic screens, it is imperative to test compounds in a mammalian neuronal context. In an effort to develop TDP-43-related mammalian models of neuron loss that occurs in ALS and FTD, primary cultures of rat cortical neurons were transfected with human wild type or Q331K mutant TDP-43. These cells were compared to cells which received an empty expression vector control. […] In the experiments described in this example, this model system is used to interrogate new therapeutic approaches to ameliorate TDP-43 toxicity.\nFluconazole is an antifungal known to inhibit Erg11, the yeast lanosterol 14-alpha demethylase (FIG. 1B). […]"}, "Erg11": {"test_system": "Erg11", "test": "HPLC analysis for lanosterol and ergosterol in fluconazole-treated wild-type yeast cultures", "details": "wild-type yeast cultures treated for eight hours, normalized to optical density at 600 nm", "experimental": "as §1\nFluconazole is an antifungal known to inhibit Erg11, the yeast lanosterol 14-alpha demethylase (FIG. 1B). […] CYP51A1 has also been known as lanosterol 14-alpha demethylase, which describes its function in removing the 14-alpha-methyl group from lanosterol to generate 4,4-dimethylcholesta-8(9),14,24-trien-3β-ol, which is a critical step in the cholesterol biosynthetic pathway."}, "[1]": {"test_system": "primary rat cortical neurons transfected with wild-type TDP-43", "test": "Survival of primary rat cortical neurons transfected with wild-type TDP-43", "details": "rat primary cortical neurons co-transfected with RFP and wild-type human TDP-43; titration of compound; cox regression", "experimental": "(§2) Rat primary cortical neurons were co-transfected with a red fluorescent protein (RFP) as a morphological marker and either control (empty vector) or wild-type TDP-43 expression plasmids and treated with vehicle (DMSO) or a titration of compound (3). (FIG. 3A) Risk of neuron death plots. The lifetime of each neuron was determined by either loss of RFP signal or morphological indicators of death such as loss of neurites and cell blebbing and used to generate cumulative hazard plots of risk of death over time (hrs) post-transfection. (FIG. 3B) Forest plots. Hazard ratios for each treatment group (relative to TDP-43 DMSO group) were determined by cox regression analysis and used to generate forest plots. […] P, p-value.\nRat primary cortical neurons were co-transfected with a red fluorescent protein (RFP) as a morphological marker and either control (empty vector) or wild type TDP-43 expression plasmids and treated with vehicle (DMSO) or a titration of compound (4). […] The lifetime of each neuron was determined by either loss of RFP signal or morphological indicators of death such as loss of neurites and cell blebbing and used to generate cumulative hazard plots of risk of death over time (hrs) post-transfection. […] Hazard ratios for each treatment group (relative to TDP-43 DMSO group) were determined by cox regression analysis and used to generate forest plots. […]"}, "[2]": {"test_system": "primary rat cortical neurons transfected with Q331K Mutant TDP-43", "test": "Survival of primary rat cortical neurons transfected with Q331K mutant TDP-43", "details": "rat primary cortical neurons co-transfected with RFP and Q331K mutant TDP-43; titration of compound; cox regression", "experimental": "as §2, with “Q331K mutant” for “wild-type”, “4A)” for “3A)”, “4B)” for “3B)”\nThe toxic gain of function features of TDP-43 can be faithfully recapitulated in the simple model organism, budding yeast, where the protein also localizes to stress granules. […] The yeast model thus provides a robust cell-based screening platform for small molecules capable of ameliorating toxicity. To validate compounds from such phenotypic screens, it is imperative to test compounds in a mammalian neuronal context. In an effort to develop TDP-43-related mammalian models of neuron loss that occurs in ALS and FTD, primary cultures of rat cortical neurons were transfected with human wild type or Q331K mutant TDP-43. […]"}}, "note": "Entries after “also recorded” stand apart in the source; their conditions may differ.", "data": [{"smiles": "OC(Cn1cncn1)(Cn1cncn1)c1ccc(F)cc1F", "note": "[Fluconazole]", "values": [{"measurement": "viability of TDP-43-expressing yeast", "setting": "TDP-43-expressing yeast", "result": "restored viability; also recorded: rescues viability"}, {"measurement": "ergosterol (AUC normalized to cell mass)", "setting": "Erg11", "result": "reduces ergosterol"}, {"measurement": "lanosterol (AUC normalized to cell mass)", "setting": "Erg11", "result": "increase in the Erg11 substrate, lanosterol"}]}, {"smiles": "CCCN(CCc1ccc(Cl)c(Cl)c1)CC(O)c1cccnc1", "note": "(stereo not drawn) [compound (3)]", "values": [{"measurement": "neuron survival (risk of neuron death, hazard ratio relative to TDP-43 DMSO group)", "setting": "[1]", "result": "reduction in survival was partially alleviated; also recorded: promotes survival"}, {"measurement": "neuron survival (risk of neuron death, hazard ratio relative to TDP-43 DMSO group)", "setting": "[2]", "result": "promotes survival"}]}, {"smiles": "O=C(N[C@@H](Cc1ccc(F)cc1)C(=O)N1CCC(O)CC1)c1cc2cc(Cl)ccc2[nH]1", "note": "[compound (4)]", "values": [{"measurement": "neuron survival (risk of neuron death, hazard ratio relative to TDP-43 DMSO group)", "setting": "[1]", "result": "promotes survival"}]}]}
